How the values were obtained:
[1] = system: vancomycin-resistant Enterococcus strain B42762; experiment: Inhibition of bacterial growth (MIC), VRE; format: cell-based; conditions: 16 to 18 hours, 37° C.
Method: (§1) Each compound was assayed against a panel of a strain of Bacillus subtilis, of strains of antibiotic-resistant and sensitive Enterococcus and Staphylococcus species, and of a strain of the Gram-negative bacterium Escherichia coli. Compounds were dissolved in DMSO at 100× the desired highest concentration and added to one well of a 96-well microassay plate. Two-fold serial drug dilutions were made across the plate in DMSO to yield 11 concentrations (usually 80-0.078 μg/mL) plus an untreated control. Drugs were then transferred to fresh plates using 1.5 μL per well. Log phase cultures were diluted to yield a concentration of 1×10^5 colony forming units/mL in either LB or BHI medium and transferred to the plates containing drug for a final volume of 150 μL. Each well, including the DMSO controls, contained a final concentration of 1% DMSO. Plates were incubated with shaking at 37° C. for 16 to 18 hours. Cell growth was determined by measuring optical density (570 nm, 1 cm path length) in a microplate reader. MIC (minimum inhibitory concentration) is equivalent to the lowest concentration at which growth is not observed. The bacterial strains and MIC determinations have been well characterized and are described elsewhere (Tarantino et al., Antimicrob. Agents Chemother., 43: 1982-1987 (1999); Daly et al., Antimicrob. Agents Chemother., 44: 2217-2221 (2000)).

E. coli pol IIIE = molecular target: T1, E. coli pol IIIE (Escherichia coli, UniProt P10443); experiment: DNA polymerase assay, E. coli pol IIIE; format: biochemical; conditions: 80 μg/mL (190-260 μM) final concentration; all four dNTPs
T1 construct: purchased Enzyco, Denver, Colo
T1 sequence (P10443 whole entry): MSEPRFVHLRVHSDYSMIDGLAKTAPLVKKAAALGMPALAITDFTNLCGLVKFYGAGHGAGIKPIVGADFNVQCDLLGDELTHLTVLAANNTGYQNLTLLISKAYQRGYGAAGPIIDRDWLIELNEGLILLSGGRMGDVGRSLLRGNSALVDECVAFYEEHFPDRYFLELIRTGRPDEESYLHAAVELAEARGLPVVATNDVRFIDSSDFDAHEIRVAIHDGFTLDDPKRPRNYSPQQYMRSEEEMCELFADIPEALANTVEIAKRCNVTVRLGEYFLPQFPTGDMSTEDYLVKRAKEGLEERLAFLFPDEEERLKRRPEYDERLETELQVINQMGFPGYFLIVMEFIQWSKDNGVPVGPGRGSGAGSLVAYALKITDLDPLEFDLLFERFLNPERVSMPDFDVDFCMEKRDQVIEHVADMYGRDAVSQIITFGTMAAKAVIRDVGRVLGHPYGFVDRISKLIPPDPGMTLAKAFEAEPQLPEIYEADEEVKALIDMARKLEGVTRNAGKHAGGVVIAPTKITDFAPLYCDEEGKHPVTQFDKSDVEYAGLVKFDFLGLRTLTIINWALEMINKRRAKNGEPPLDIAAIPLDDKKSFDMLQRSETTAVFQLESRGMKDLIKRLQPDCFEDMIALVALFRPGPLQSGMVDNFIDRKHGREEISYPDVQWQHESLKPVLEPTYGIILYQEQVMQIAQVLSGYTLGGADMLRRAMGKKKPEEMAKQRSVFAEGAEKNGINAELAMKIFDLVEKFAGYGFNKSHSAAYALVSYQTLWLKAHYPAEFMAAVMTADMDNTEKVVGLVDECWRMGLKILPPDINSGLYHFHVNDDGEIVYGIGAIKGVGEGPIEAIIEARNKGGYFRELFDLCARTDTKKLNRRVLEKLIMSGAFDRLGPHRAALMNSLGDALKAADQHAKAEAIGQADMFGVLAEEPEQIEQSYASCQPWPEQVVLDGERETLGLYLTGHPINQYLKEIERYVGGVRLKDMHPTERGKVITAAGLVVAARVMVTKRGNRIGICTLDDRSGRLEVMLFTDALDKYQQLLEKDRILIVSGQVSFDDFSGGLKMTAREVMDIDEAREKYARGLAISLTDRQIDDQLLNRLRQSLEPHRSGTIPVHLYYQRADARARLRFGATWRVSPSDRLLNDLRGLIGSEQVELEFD
Method: (§2) Recombinant, purified pol IIIC and pol IIIE from Bacillus subtilis were obtained using known methods (Hammond et al., Gene 98: 29-36 (1991), regarding pol IIIC; Barnes et al., J. Bacteriol. 184, 3834-3838 (2002), regarding pol IIIE). Recombinant, purified pol IIIE from Escherichia coli was obtained from a commercial source (Enzyco, Denver, Colo.). The enzyme assays were performed in 96-well plate format using the same assay mix for all three enzymes. Each 25 μL assay contained 30 mM Tris, pH 7.5, 10 mM magnesium acetate, 4 mM dithiothreitol, 20% glycerol, with 10 μM dATP, dCTP, dGTP and dTTP (3H-labelled at 1.44 Ci/mmole) and 0.4 mg/mL activated calf thymus DNA as substrates. Dilutions of compounds were added to the plate in 1% DMSO (1 μL/well). Assays were initiated by the addition of 0.025 to 0.06 units of enzyme (1 unit is the amount required to incorporate 250 pmoles of [^3H] dTMP in a standard assay), incubated for 10 min at 30° C. and terminated by the addition of 200 μL of cold 10% trichloroacetic acid, 10 mM sodium pyrophosphate. Precipitated labeled DNA was collected on glass fiber filter plates that had been pre-wet with ice cold 1 M HCl, 100 mM sodium pyrophosphate. The plates were washed with the HCl solution followed by ice cold 90% ethanol and then dried and counted in a liquid scintillation counter. The calculated IC50 is the concentration needed to inhibit 50% of the DNA polymerase activity in the presence of all four dNTP substrates. In addition, percent inhibition values are calculated as the percent reduction in the activity of a DMSO (diluent) control.

[2] = system: Escherichia coli strain J53; experiment: Inhibition of bacterial growth (MIC), Ec; format: cell-based; conditions: 16 to 18 hours, 37° C.
Method: as §1

[3] = system: E. faecium clinical isolate; experiment: Inhibition of bacterial growth (MIC), Efcm; format: cell-based; conditions: 16 to 18 hours, 37° C.
Method: as §1

S. aureus Smith strain = experiment: Inhibition of bacterial growth (MIC), Sm; format: cell-based, Staphylococcus aureus; conditions: 16 to 18 hours, 37° C.
Method: as §1

B. subtilis pol IIIE = molecular target: T2, B. subtilis pol IIIE (Bacillus subtilis, UniProt O34623); experiment: DNA polymerase assay, B. subtilis pol IIIE; format: biochemical; conditions: 80 μg/mL (190-260 μM) final concentration; all four dNTPs
T2 construct: made in house
T2 sequence (O34623 whole entry): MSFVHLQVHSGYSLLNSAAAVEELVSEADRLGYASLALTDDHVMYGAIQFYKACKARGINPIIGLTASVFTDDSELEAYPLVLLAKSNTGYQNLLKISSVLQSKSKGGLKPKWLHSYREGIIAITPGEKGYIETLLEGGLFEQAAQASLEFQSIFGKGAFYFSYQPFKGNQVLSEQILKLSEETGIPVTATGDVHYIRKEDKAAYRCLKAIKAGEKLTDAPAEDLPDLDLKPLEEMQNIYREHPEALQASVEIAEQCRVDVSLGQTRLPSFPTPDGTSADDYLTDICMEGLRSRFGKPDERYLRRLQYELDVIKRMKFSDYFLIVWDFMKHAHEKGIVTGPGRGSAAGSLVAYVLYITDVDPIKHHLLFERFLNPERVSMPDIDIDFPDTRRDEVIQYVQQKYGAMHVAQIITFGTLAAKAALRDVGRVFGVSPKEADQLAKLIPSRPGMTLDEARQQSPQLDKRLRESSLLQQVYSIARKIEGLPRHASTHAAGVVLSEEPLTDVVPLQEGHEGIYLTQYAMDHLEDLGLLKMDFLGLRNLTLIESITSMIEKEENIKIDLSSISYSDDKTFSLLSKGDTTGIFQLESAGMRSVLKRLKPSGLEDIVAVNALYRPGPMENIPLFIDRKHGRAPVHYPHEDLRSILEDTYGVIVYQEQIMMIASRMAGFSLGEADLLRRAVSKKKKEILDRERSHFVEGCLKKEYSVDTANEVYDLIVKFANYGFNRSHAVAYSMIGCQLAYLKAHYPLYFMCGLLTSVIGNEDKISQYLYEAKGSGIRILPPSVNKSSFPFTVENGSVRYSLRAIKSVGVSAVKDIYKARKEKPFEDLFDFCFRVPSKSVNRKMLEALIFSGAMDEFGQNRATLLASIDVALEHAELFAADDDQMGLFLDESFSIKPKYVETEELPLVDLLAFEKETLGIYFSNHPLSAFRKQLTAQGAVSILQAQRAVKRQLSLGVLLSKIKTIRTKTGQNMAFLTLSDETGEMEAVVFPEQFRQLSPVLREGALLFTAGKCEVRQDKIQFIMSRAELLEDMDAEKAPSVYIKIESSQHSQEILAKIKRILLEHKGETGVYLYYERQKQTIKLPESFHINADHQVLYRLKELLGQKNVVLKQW
Method: as §2

[4] = system: Staphylococcus aureus strain IP 8; experiment: Inhibition of bacterial growth (MIC), Sa; format: cell-based; conditions: 16 to 18 hours, 37° C.
Method: as §1

[5] = system: Enterococcus faecalis strain 29212; experiment: Inhibition of bacterial growth (MIC), Efcl; format: cell-based; conditions: 16 to 18 hours, 37° C.
Method: as §1

[6] = system: Bacillus subtilis strain BD54; experiment: Inhibition of bacterial growth (MIC), Bs; format: cell-based; conditions: 16 to 18 hours, 37° C.
Method: as §1

B. subtilis pol IIIC = molecular target: T3, B. subtilis pol IIIC (Bacillus subtilis, UniProt P13267); experiment: DNA polymerase assay, B. subtilis pol IIIC; format: biochemical; conditions: 80 μg/mL (190-260 μM) final concentration; all four dNTPs
T3 construct: made in house
T3 sequence (P13267 whole entry): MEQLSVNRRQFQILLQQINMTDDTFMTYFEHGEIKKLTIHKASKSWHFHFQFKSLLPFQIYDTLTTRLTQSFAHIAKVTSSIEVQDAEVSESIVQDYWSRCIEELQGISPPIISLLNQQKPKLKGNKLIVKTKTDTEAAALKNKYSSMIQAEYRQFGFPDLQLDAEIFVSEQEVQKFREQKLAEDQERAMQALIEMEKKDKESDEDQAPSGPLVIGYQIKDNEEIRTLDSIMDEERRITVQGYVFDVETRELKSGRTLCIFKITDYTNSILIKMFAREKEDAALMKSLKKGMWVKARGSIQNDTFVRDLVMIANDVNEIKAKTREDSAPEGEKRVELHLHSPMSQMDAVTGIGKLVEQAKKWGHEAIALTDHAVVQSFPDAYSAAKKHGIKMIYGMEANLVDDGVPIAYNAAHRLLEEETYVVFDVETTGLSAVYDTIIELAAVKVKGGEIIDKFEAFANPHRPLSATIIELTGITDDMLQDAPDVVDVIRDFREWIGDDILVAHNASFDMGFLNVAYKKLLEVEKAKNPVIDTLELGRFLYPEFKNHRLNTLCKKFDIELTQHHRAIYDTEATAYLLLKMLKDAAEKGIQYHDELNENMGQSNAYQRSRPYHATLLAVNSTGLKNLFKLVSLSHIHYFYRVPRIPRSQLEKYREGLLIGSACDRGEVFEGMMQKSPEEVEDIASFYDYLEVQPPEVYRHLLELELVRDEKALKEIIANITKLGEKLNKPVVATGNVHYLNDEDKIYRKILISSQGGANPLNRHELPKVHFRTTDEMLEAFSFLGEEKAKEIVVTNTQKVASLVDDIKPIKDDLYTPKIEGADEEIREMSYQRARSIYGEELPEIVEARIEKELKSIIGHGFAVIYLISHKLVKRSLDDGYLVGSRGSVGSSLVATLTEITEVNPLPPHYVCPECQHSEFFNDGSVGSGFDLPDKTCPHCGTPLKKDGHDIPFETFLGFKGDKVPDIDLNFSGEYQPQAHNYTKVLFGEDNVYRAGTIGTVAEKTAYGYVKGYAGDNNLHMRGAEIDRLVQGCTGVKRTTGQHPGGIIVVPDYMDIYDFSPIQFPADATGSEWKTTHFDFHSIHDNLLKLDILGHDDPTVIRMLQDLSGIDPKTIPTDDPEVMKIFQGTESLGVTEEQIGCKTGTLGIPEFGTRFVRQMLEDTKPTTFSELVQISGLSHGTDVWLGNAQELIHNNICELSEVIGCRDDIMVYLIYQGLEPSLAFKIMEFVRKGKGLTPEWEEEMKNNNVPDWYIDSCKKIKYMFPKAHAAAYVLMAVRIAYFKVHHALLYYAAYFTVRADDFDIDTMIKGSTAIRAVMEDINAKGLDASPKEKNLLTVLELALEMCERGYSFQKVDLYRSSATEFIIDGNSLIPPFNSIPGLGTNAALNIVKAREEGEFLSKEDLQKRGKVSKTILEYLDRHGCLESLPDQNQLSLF
Method: as §2, with “Each 25 μL assay contained 30 mM Tris, pH 7.5, 10 mM magnesium acetate, 4 mM dithiothreitol, 20% glycerol, with 10 μM dATP, dCTP, dGTP and dTTP (3H-labelled at 1.44 Ci/mmole) and 0.4 mg/mL activated calf thymus DNA as substrates.” left out, “The calculated IC50 is the concentration needed to inhibit 50% of the DNA polymerase activity in the presence of all four dNTP substrates.” left out

[7] = system: methicillin-resistant S. aureus strain 1094; experiment: Inhibition of bacterial growth (MIC), MRSA; format: cell-based, Staphylococcus aureus; conditions: 16 to 18 hours, 37° C.
Method: as §1

SMILES: O=C(NN=Cc1cc(Br)ccc1O)c1cc(-c2ccccc2)n[nH]1 [Compound 6]
- Minimum Inhibitory Concentration for Bacterial Growth, VRE [1]: 8 µg/mL
- Percent Enzymatic Inhibition E. coli pol IIIE (E. coli pol IIIE): 9.0%
- Minimum Inhibitory Concentration for Bacterial Growth, Ec [2]: >80 µg/mL
- Minimum Inhibitory Concentration for Bacterial Growth, Efcm [3]: 10 µg/mL
- Minimum Inhibitory Concentration for Bacterial Growth, Sm (S. aureus Smith strain): >80 µg/mL
- Percent Enzymatic Inhibition B. subtilis pol IIIE (B. subtilis pol IIIE): 7.7%
- Minimum Inhibitory Concentration for Bacterial Growth, Sa [4]: 10 µg/mL
- Minimum Inhibitory Concentration for Bacterial Growth, Efcl [5]: 8 µg/mL
- Minimum Inhibitory Concentration for Bacterial Growth, Bs [6]: >80 µg/mL
- Percent Enzymatic Inhibition B. subtilis pol IIIC (B. subtilis pol IIIC): 11.3%
- Minimum Inhibitory Concentration for Bacterial Growth, MRSA [7]: 40 µg/mL

SMILES: COc1cccc(C=NNC(=O)c2cc(-c3ccc(C)cc3)n[nH]2)c1O [Compound 8]
- Minimum Inhibitory Concentration for Bacterial Growth, VRE [1]: >80 µg/mL
- Minimum Inhibitory Concentration for Bacterial Growth, Ec [2]: >80 µg/mL
- Minimum Inhibitory Concentration for Bacterial Growth, Efcm [3]: >80 µg/mL
- Minimum Inhibitory Concentration for Bacterial Growth, Sm (S. aureus Smith strain): >80 µg/mL
- Minimum Inhibitory Concentration for Bacterial Growth, Sa [4]: >80 µg/mL
- Minimum Inhibitory Concentration for Bacterial Growth, Efcl [5]: >80 µg/mL
- Minimum Inhibitory Concentration for Bacterial Growth, Bs [6]: >80 µg/mL
- Percent Enzymatic Inhibition B. subtilis pol IIIC (B. subtilis pol IIIC): 19.7%
- Minimum Inhibitory Concentration for Bacterial Growth, MRSA [7]: >80 µg/mL

SMILES: O=C(NN=Cc1ccccc1O)c1cc(-c2ccccc2)n[nH]1 [Compound 9]
- Minimum Inhibitory Concentration for Bacterial Growth, VRE [1]: >80 µg/mL
- Minimum Inhibitory Concentration for Bacterial Growth, Ec [2]: >80 µg/mL
- Minimum Inhibitory Concentration for Bacterial Growth, Efcm [3]: >80 µg/mL
- Minimum Inhibitory Concentration for Bacterial Growth, Sm (S. aureus Smith strain): >80 µg/mL
- Minimum Inhibitory Concentration for Bacterial Growth, Sa [4]: >80 µg/mL
- Minimum Inhibitory Concentration for Bacterial Growth, Efcl [5]: >80 µg/mL
- Minimum Inhibitory Concentration for Bacterial Growth, Bs [6]: >80 µg/mL
- Minimum Inhibitory Concentration for Bacterial Growth, MRSA [7]: >80 µg/mL

SMILES: COc1cccc(-c2cc(C(=O)NN=Cc3cccc(O)c3)[nH]n2)c1 [Compound 10]
- Minimum Inhibitory Concentration for Bacterial Growth, VRE [1]: >80 µg/mL
- Percent Enzymatic Inhibition E. coli pol IIIE (E. coli pol IIIE): Inactive
- Minimum Inhibitory Concentration for Bacterial Growth, Ec [2]: >80 µg/mL
- Minimum Inhibitory Concentration for Bacterial Growth, Efcm [3]: >80 µg/mL
- Minimum Inhibitory Concentration for Bacterial Growth, Sm (S. aureus Smith strain): >80 µg/mL
- Percent Enzymatic Inhibition B. subtilis pol IIIE (B. subtilis pol IIIE): 9.6%
- Minimum Inhibitory Concentration for Bacterial Growth, Sa [4]: >80 µg/mL
- Minimum Inhibitory Concentration for Bacterial Growth, Efcl [5]: >80 µg/mL
- Minimum Inhibitory Concentration for Bacterial Growth, Bs [6]: >80 µg/mL
- Percent Enzymatic Inhibition B. subtilis pol IIIC (B. subtilis pol IIIC): Inactive
- Minimum Inhibitory Concentration for Bacterial Growth, MRSA [7]: >80 µg/mL

SMILES: Cc1ccc(C=NNC(=O)c2cc(-c3ccccc3)n[nH]2)cc1 [Compound 11]
- Minimum Inhibitory Concentration for Bacterial Growth, VRE [1]: >80 µg/mL
- Percent Enzymatic Inhibition E. coli pol IIIE (E. coli pol IIIE): Inactive
- Minimum Inhibitory Concentration for Bacterial Growth, Ec [2]: >80 µg/mL
- Minimum Inhibitory Concentration for Bacterial Growth, Efcm [3]: >80 µg/mL
- Minimum Inhibitory Concentration for Bacterial Growth, Sm (S. aureus Smith strain): >80 µg/mL
- Percent Enzymatic Inhibition B. subtilis pol IIIE (B. subtilis pol IIIE): 16.7%
- Minimum Inhibitory Concentration for Bacterial Growth, Sa [4]: >80 µg/mL
- Minimum Inhibitory Concentration for Bacterial Growth, Efcl [5]: >80 µg/mL
- Minimum Inhibitory Concentration for Bacterial Growth, Bs [6]: >80 µg/mL
- Percent Enzymatic Inhibition B. subtilis pol IIIC (B. subtilis pol IIIC): 1.3%
- Minimum Inhibitory Concentration for Bacterial Growth, MRSA [7]: >80 µg/mL

SMILES: CCCCc1cc(C=NNC(=O)c2cc(-c3ccccc3)n[nH]2)cc(CCCC)c1O [Compound 12]
- Minimum Inhibitory Concentration for Bacterial Growth, VRE [1]: >80 µg/mL
- Percent Enzymatic Inhibition E. coli pol IIIE (E. coli pol IIIE): 7.2%
- Minimum Inhibitory Concentration for Bacterial Growth, Ec [2]: >80 µg/mL
- Minimum Inhibitory Concentration for Bacterial Growth, Efcm [3]: >80 µg/mL
- Minimum Inhibitory Concentration for Bacterial Growth, Sm (S. aureus Smith strain): >80 µg/mL
- Percent Enzymatic Inhibition B. subtilis pol IIIE (B. subtilis pol IIIE): 7.6%
- Minimum Inhibitory Concentration for Bacterial Growth, Sa [4]: >80 µg/mL
- Minimum Inhibitory Concentration for Bacterial Growth, Efcl [5]: >80 µg/mL
- Minimum Inhibitory Concentration for Bacterial Growth, Bs [6]: >80 µg/mL
- Percent Enzymatic Inhibition B. subtilis pol IIIC (B. subtilis pol IIIC): Inactive
- Minimum Inhibitory Concentration for Bacterial Growth, MRSA [7]: >80 µg/mL

SMILES: COc1ccc(-c2cc(C(=O)NN=Cc3ccccc3)[nH]n2)cc1 [Compound 13]
- Minimum Inhibitory Concentration for Bacterial Growth, VRE [1]: >80 µg/mL
- Percent Enzymatic Inhibition E. coli pol IIIE (E. coli pol IIIE): 3.4%
- Minimum Inhibitory Concentration for Bacterial Growth, Ec [2]: >80 µg/mL
- Minimum Inhibitory Concentration for Bacterial Growth, Efcm [3]: >80 µg/mL
- Minimum Inhibitory Concentration for Bacterial Growth, Sm (S. aureus Smith strain): >80 µg/mL
- Percent Enzymatic Inhibition B. subtilis pol IIIE (B. subtilis pol IIIE): Inactive
- Minimum Inhibitory Concentration for Bacterial Growth, Sa [4]: >80 µg/mL
- Minimum Inhibitory Concentration for Bacterial Growth, Efcl [5]: >80 µg/mL
- Minimum Inhibitory Concentration for Bacterial Growth, Bs [6]: >80 µg/mL
- Percent Enzymatic Inhibition B. subtilis pol IIIC (B. subtilis pol IIIC): 2.9%
- Minimum Inhibitory Concentration for Bacterial Growth, MRSA [7]: >80 µg/mL

SMILES: COc1cccc(-c2cc(C(=O)NN=Cc3ccc(O)cc3)[nH]n2)c1 [Compound 14]
- Minimum Inhibitory Concentration for Bacterial Growth, VRE [1]: 80 µg/mL
- Percent Enzymatic Inhibition E. coli pol IIIE (E. coli pol IIIE): Inactive
- Minimum Inhibitory Concentration for Bacterial Growth, Ec [2]: >80 µg/mL
- Minimum Inhibitory Concentration for Bacterial Growth, Efcm [3]: >80 µg/mL
- Minimum Inhibitory Concentration for Bacterial Growth, Sm (S. aureus Smith strain): 80 µg/mL
- Percent Enzymatic Inhibition B. subtilis pol IIIE (B. subtilis pol IIIE): 18.1%
- Minimum Inhibitory Concentration for Bacterial Growth, Sa [4]: 80 µg/mL
- Minimum Inhibitory Concentration for Bacterial Growth, Efcl [5]: >80 µg/mL
- Minimum Inhibitory Concentration for Bacterial Growth, Bs [6]: >80 µg/mL
- Percent Enzymatic Inhibition B. subtilis pol IIIC (B. subtilis pol IIIC): 0.5%
- Minimum Inhibitory Concentration for Bacterial Growth, MRSA [7]: 80 µg/mL

SMILES: CCN1C(=O)C(=NNC(=O)c2cc(-c3ccccc3)n[nH]2)c2ccccc21 [Compound 20]
- Percent Enzymatic Inhibition E. coli pol IIIE (E. coli pol IIIE): Inactive
- Percent Enzymatic Inhibition B. subtilis pol IIIE (B. subtilis pol IIIE): 0.5%
- Percent Enzymatic Inhibition B. subtilis pol IIIC (B. subtilis pol IIIC): 0.2%

SMILES: CCN1C(=O)C(=NNC(=O)c2cc(-c3cccc(-c4ccccc4)c3)n[nH]2)c2ccccc21 [Compound 21]
- Minimum Inhibitory Concentration for Bacterial Growth, VRE [1]: >80 µg/mL
- Minimum Inhibitory Concentration for Bacterial Growth, Ec [2]: >80 µg/mL
- Minimum Inhibitory Concentration for Bacterial Growth, Efcm [3]: >80 µg/mL
- Minimum Inhibitory Concentration for Bacterial Growth, Sm (S. aureus Smith strain): >80 µg/mL
- Minimum Inhibitory Concentration for Bacterial Growth, Sa [4]: >80 µg/mL
- Minimum Inhibitory Concentration for Bacterial Growth, Efcl [5]: >80 µg/mL
- Minimum Inhibitory Concentration for Bacterial Growth, Bs [6]: >80 µg/mL
- Minimum Inhibitory Concentration for Bacterial Growth, MRSA [7]: >80 µg/mL

From patent publication US20060258729A1, “Antibacterial pyrazole carboxylic acid hydrazides” (priority 2002, published 2006)
